Results: ChEMBL document CHEMBL5331074, “Design and synthesis of new adamantyl derivatives as promising antiproliferative agents” (Eur J Med Chem, 2023)
The source made the active and inactive calls. The rule behind the calls is not given here.

Key:
[1] = molecular target: Ectonucleotide pyrophosphatase/phosphodiesterase family member 3 (Homo sapiens, UniProt O14638); assay: Inhibition of human NPP3 expressed in COS-7 cells using pNP-TMP as substrate preincubated for 10 mins followed by substrate addition and measured after 35 mins by microplate reader analysis; type: cell-based
Chain of Ectonucleotide pyrophosphatase/phosphodiesterase family member 3 (O14638 whole entry): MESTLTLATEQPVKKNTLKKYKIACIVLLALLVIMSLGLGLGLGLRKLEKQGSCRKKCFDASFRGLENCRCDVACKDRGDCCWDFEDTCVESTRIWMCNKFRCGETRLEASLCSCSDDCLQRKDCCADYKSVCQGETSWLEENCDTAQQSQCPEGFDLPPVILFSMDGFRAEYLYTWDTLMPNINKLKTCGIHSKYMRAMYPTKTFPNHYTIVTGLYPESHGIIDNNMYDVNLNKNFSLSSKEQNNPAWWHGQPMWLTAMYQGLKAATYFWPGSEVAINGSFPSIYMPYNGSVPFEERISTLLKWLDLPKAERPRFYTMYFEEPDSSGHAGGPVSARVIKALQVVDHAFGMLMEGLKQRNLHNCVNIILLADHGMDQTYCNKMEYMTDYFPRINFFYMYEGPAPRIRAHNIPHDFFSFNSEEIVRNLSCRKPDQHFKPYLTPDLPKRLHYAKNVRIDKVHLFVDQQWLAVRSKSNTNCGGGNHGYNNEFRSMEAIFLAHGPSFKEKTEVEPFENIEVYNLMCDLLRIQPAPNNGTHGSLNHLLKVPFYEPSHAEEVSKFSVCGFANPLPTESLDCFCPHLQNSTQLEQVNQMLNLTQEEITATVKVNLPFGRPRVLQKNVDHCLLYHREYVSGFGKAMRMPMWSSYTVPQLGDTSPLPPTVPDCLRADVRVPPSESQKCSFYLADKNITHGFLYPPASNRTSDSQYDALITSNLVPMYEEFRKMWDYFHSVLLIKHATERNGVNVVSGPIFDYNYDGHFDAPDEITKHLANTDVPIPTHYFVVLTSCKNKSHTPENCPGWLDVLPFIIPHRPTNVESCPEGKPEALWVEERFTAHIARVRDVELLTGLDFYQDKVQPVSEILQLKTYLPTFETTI

HT-29 [2] = assay: Cytotoxicity against human HT-29 assessed as cell growth inhibition; type: functional, cell-based
HT-29 [3] = assay: Cytotoxicity against human HT-29 assessed as mean growth inhibition; type: functional
HL-60(TB) = assay: Cytotoxicity against human HL-60(TB) cells assessed as cell growth inhibition; type: functional, cell-based
K562 = assay: Cytotoxicity against human K562 cells assessed as cell growth inhibition; type: functional, cell-based
RPMI-8226 = assay: Cytotoxicity against human RPMI-8226 cells assessed as cell growth inhibition; type: functional, cell-based
SR = assay: Cytotoxicity against human SR cells assessed as cell growth inhibition; type: functional, cell-based
A549 = assay: Cytotoxicity against human A549 cells assessed as cell growth inhibition; type: functional, cell-based
HOP-62 = assay: Cytotoxicity against human HOP-62 cells assessed as cell growth inhibition; type: functional, cell-based
HOP-92 = assay: Cytotoxicity against human HOP-92 cells assessed as cell growth inhibition; type: functional, cell-based
NCI-H226 = assay: Cytotoxicity against human NCI-H226 cells assessed as cell growth inhibition; type: functional, cell-based
NCI-H23 = assay: Cytotoxicity against human NCI-H23 cells assessed as cell growth inhibition; type: functional, cell-based
NCI-H322M = assay: Cytotoxicity against human NCI-H322M cells assessed as cell growth inhibition; type: functional, cell-based
NCI-H460 = assay: Cytotoxicity against human NCI-H460 cells assessed as cell growth inhibition; type: functional, cell-based
NCI-H522 = assay: Cytotoxicity against human NCI-H522 cells assessed as cell growth inhibition; type: functional, cell-based
COLO 205 = assay: Cytotoxicity against human COLO 205 cells assessed as cell growth inhibition; type: functional, cell-based
HCC 2998 = assay: Cytotoxicity against human HCC 2998 cells assessed as cell growth inhibition; type: functional, cell-based
HCT-116 = assay: Cytotoxicity against human HCT-116 cells assessed as cell growth inhibition; type: functional, cell-based
HCT-15 = assay: Cytotoxicity against human HCT-15 cells assessed as cell growth inhibition; type: functional, cell-based
HT-29 [4] = assay: Cytotoxicity against human HT-29 cells assessed as cell growth inhibition; type: functional, cell-based
KM12 = assay: Cytotoxicity against human KM12 cells assessed as cell growth inhibition; type: functional, cell-based
SW-620 = assay: Cytotoxicity against human SW620 cells assessed as cell growth inhibition; type: functional, cell-based
SF-268 = assay: Cytotoxicity against human SF-268 cells assessed as cell growth inhibition; type: functional, cell-based
SF-295 = assay: Cytotoxicity against human SF-295 cells assessed as cell growth inhibition; type: functional, cell-based
SF-539 = assay: Cytotoxicity against human SF-539 cells assessed as cell growth inhibition; type: functional, cell-based
SNB-19 = assay: Cytotoxicity against human SNB-19 cells assessed as cell growth inhibition; type: functional, cell-based
SNB-75 = assay: Cytotoxicity against human SNB-75 cells assessed as cell growth inhibition; type: functional, cell-based
U-251 = assay: Cytotoxicity against human U-251 cells assessed as cell growth inhibition; type: functional, cell-based
LOX IMVI = assay: Cytotoxicity against human LOX IMVI cells assessed as cell growth inhibition; type: functional, cell-based
Malme-3M = assay: Cytotoxicity against human Malme-3M cells assessed as cell growth inhibition; type: functional, cell-based
M14 = assay: Cytotoxicity against human M14 cells assessed as cell growth inhibition; type: functional, cell-based
MDA-MB-435 = assay: Cytotoxicity against human MDA-MB-435 cells assessed as cell growth inhibition; type: functional, cell-based
SK-MEL-2 = assay: Cytotoxicity against human SK-MEL-2 cells assessed as cell growth inhibition; type: functional, cell-based
SK-MEL-28 = assay: Cytotoxicity against human SK-MEL-28 cells assessed as cell growth inhibition; type: functional, cell-based
SK-MEL-5 = assay: Cytotoxicity against human SK-MEL-5 cells assessed as cell growth inhibition; type: functional, cell-based
UACC-257 = assay: Cytotoxicity against human UACC-257 cells assessed as cell growth inhibition; type: functional, cell-based
UACC-62 = assay: Cytotoxicity against human UACC-62 cells assessed as cell growth inhibition; type: functional, cell-based
IGROV-1 = assay: Cytotoxicity against human IGROV-1 cells assessed as cell growth inhibition; type: functional, cell-based
OVCAR-4 = assay: Cytotoxicity against human OVCAR-4 cells assessed as cell growth inhibition; type: functional, cell-based
OVCAR-5 = assay: Cytotoxicity against human OVCAR-5 cells assessed as cell growth inhibition; type: functional, cell-based
OVCAR-8 = assay: Cytotoxicity against human OVCAR-8 cells assessed as cell growth inhibition; type: functional, cell-based
NCI/ADR-RES = assay: Cytotoxicity against human NCI/ADR-RES cells assessed as cell growth inhibition; type: functional, cell-based
SK-OV-3 = assay: Cytotoxicity against human SK-OV-3 cells assessed as cell growth inhibition; type: functional, cell-based
786-0 = assay: Cytotoxicity against human 786-0 cells assessed as cell growth inhibition; type: functional, cell-based
A498 = assay: Cytotoxicity against human A498 cells assessed as cell growth inhibition; type: functional, cell-based
ACHN = assay: Cytotoxicity against human ACHN cells assessed as cell growth inhibition; type: functional, cell-based
RXF 393 = assay: Cytotoxicity against human RXF 393 cells assessed as cell growth inhibition; type: functional, cell-based
SN12C = assay: Cytotoxicity against human SN12C cells assessed as cell growth inhibition; type: functional, cell-based
TK-10 = assay: Cytotoxicity against human TK-10 cells assessed as cell growth inhibition; type: functional, cell-based
UO-31 = assay: Cytotoxicity against human UO-31 cells assessed as cell growth inhibition; type: functional, cell-based
PC-3 = assay: Cytotoxicity against human PC-3 cells assessed as cell growth inhibition; type: functional, cell-based
DU-145 = assay: Cytotoxicity against human DU-145 cells assessed as cell growth inhibition; type: functional, cell-based
MCF7 = assay: Cytotoxicity against human MCF7 cells assessed as cell growth inhibition; type: functional, cell-based
MDA-MB-231 = assay: Cytotoxicity against human MDA-MB-231 cells assessed as cell growth inhibition; type: functional, cell-based
Hs-578T = assay: Cytotoxicity against human Hs-578T cells assessed as cell growth inhibition; type: functional, cell-based
BT-549 = assay: Cytotoxicity against human BT-549 cells assessed as cell growth inhibition; type: functional, cell-based
T47D = assay: Cytotoxicity against human T47D cells assessed as cell growth inhibition; type: functional, cell-based
MDA-MB-468 = assay: Cytotoxicity against human MDA-MB-468 cells assessed as cell growth inhibition; type: functional, cell-based
[5] = Cytotoxicity against human hTERT-HME1 cells assessed as cell growth inhibition; type: toxicity, cell-based
[6] = Selectivity index, ratio of IC50 for cytotoxicity against human hTERT-HME1 cells to IC50 for cytotoxicity against human BT-549 cells
Autotaxin = Autotaxin (Homo sapiens, UniProt Q13822); assay: Inhibition of human NPP2 expressed in COS-7 cells using pNP-TMP as substrate preincubated for 10 mins followed by substrate addition and measured after 35 mins by microplate reader analysis; type: cell-based
Carbonic anhydrase 9 = Carbonic anhydrase 9 (Homo sapiens, UniProt Q16790)
Description: Inhibition of Carbonic anhydrase 9 (unknown origin) using p-nitrophenyl acetate as substrate preincubated for 10 mins followed by substrate addition and measured after 30 mins by microplate reader method

## O=C(Nc1ccc(OS(=O)(=O)c2ccc(F)cc2)cc1)C12CC3CC(CC(C3)C1)C2
[1]
  IC50: 0.74 µM
HT-29 [2]
  inhibition: Active
HT-29 [3]
  inhibition (INH): 63.5%
HL-60(TB)
  IC50: 2.68 µM
K562
  IC50: 0.58 µM
RPMI-8226
  IC50: 2.15 µM
SR
  IC50: 3.6 µM
A549
  IC50: 2.3 µM
HOP-62
  IC50: 11.1 µM
HOP-92
  IC50: 1.06 µM
NCI-H226
  IC50: 19.2 µM
NCI-H23
  IC50: 7.71 µM
NCI-H322M
  IC50: 5.55 µM
NCI-H460
  IC50: 2.3 µM
NCI-H522
  IC50: 3.39 µM
COLO 205
  IC50: 0.58 µM
HCC 2998
  IC50: 7.95 µM
HCT-116
  IC50: 0.63 µM
HCT-15
  IC50: 0.42 µM
HT-29 [4]
  IC50: 0.2 µM
KM12
  IC50: 0.72 µM
SW-620
  IC50: 0.41 µM
SF-268
  IC50: 20.8 µM
SF-295
  IC50: 1.81 µM
SF-539
  IC50: 0.76 µM
SNB-19
  IC50: 15.7 µM
SNB-75
  IC50: 1.97 µM
U-251
  IC50: 19.4 µM
LOX IMVI
  IC50: 7.57 µM
Malme-3M
  IC50: 4.07 µM
M14
  IC50: 6.02 µM
MDA-MB-435
  IC50: 7.8 µM
SK-MEL-2
  IC50: 10.5 µM
SK-MEL-28
  IC50: 28.7 µM
SK-MEL-5
  IC50: 3.61 µM
UACC-257
  IC50: 3.4 µM
UACC-62
  IC50: 3.14 µM
IGROV-1
  IC50: 10.4 µM
OVCAR-4
  IC50: 1.61 µM
OVCAR-5
  IC50: 28.8 µM
OVCAR-8
  IC50: 12.8 µM
NCI/ADR-RES
  IC50: 0.94 µM
SK-OV-3
  IC50: 7.83 µM
786-0
  IC50: 5.08 µM
A498
  IC50: 0.28 µM
ACHN
  IC50: 15.7 µM
RXF 393
  IC50: 4.76 µM
SN12C
  IC50: 19 µM
TK-10
  IC50: 20.2 µM
UO-31
  IC50: 3.43 µM
PC-3
  IC50: 0.49 µM
DU-145
  IC50: 10.6 µM
MCF7
  IC50: 0.59 µM
MDA-MB-231
  IC50: 1.87 µM
Hs-578T
  IC50: 2.29 µM
BT-549
  IC50: 4.28 µM
T47D
  IC50: 0.83 µM
MDA-MB-468
  IC50: 1.01 µM
[5]
  IC50: > 50 µM
[6]
  Ratio IC50: 11.7
Autotaxin
  IC50: 1.07 µM
Carbonic anhydrase 9
  IC50: 0.33 µM
